Measured values: patent US7928108B2, “Pyridinone derivative for the treatment of premature ejaculation” (Glaxo Group Limited, priority 2007, dated 2011)

Assays:
[1] = biological target: T1, Human 5-HT1A receptor (Homo sapiens, UniProt P08908); assay: Human 5-HT1A receptor affinity, [3H]WAY100635 radioligand binding; parameters: expressed in transfected cells; host or cells: CHO; settings: CHO cell membranes expressing 5-HT1A, [3H]WAY100635 0.5 nM, 37° C. 45 minutes; assay b); read-out: pKi against 5-HT1A (converted)
T1 sequence (P08908 1-422): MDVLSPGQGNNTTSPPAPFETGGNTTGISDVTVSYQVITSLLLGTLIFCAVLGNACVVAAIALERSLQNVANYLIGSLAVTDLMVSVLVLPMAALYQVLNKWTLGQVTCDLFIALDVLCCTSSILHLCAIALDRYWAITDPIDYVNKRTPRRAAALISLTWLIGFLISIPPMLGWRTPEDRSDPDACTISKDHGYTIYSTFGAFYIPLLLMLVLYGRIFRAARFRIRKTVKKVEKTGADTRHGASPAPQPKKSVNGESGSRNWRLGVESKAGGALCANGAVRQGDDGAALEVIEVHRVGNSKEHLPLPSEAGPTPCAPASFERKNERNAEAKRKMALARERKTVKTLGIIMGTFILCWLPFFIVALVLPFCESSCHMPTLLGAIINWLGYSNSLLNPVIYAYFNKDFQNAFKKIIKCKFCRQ
Description: (§1) b) Human 5-HT1A, 5-HT1B and 5-HT1D Receptor Affinity
(§2) The affinities of the compounds of the invention for the 5-HT1A, 5-HT1B and 5-HT1D receptors may be determined by the following assay.
(§3) Homogenise chinese hamster ovary (CHO) cells expressing 5-HT1A receptors (4×10^7 cells/ml) in Tris buffer and store in 1 ml aliquots. Homogenise CHO cells expressing 5-HT1B receptors (4×10^7 cells/ml) in Tris buffer and store in 1.5 ml aliquots. Homogenise CHO cells expressing 5-HT1D receptors (1×10^8/ml) in Tris buffer and stored in 1 ml aliquots. The binding assays are carried out in a total volume of 500 μl. For each compound to be tested make up seven solutions ranging in concentration from 0.3 mM to 0.3 nM (100× final concentrations). Dispense 5 μl of solution containing the test compound per well and add 100 μl of radioligand at 5× final desired assay concentration, i.e. [^3H]-5-HT 15 nM (final assay concentration: 3 nM) in Tris Mg HCl buffer (pH 7.7) for 5-HT1B/1D receptors and [^3H]WAY100635 2.5 nM (final assay concentration: 0.5 nM) in Tris Mg HCl buffer (pH 7.7) containing 150 μM GPP(NH)p (final assay concentration: 30 μM) for 5-HT1A receptors. Add 400 μl/well of a cell membrane suspension in Tris Mg HCl buffer (pH 7.7) to make a total volume of 505 μl. Incubate at 37° C. for 45 minutes. […] Measure radioactivity using Topcount scintillation counting. […]

[2] = biological target: T1, Human 5-HT1A receptor; assay: Human 5-HT1A receptor functional potency, GTPγS binding protocol; type: biochemical; parameters: expressed in transfected cells; settings: GTPγS binding, membranes of HEK293 cells transfected with human 5-HT1A; assay a); read-out: fpKi against 5-HT1A (converted)
Description: a) Human 5-HT1A Receptor Functional Potency
The functional potency of the compounds of the invention for the 5-HT1A receptor may be determined by the following GTPγS binding protocol. Cells used in the study are CHO Cells and Human Embryo Kidney (HEK293). Transfect cells with DNA coding for human receptor as follows: HEK293—5-HT1A. Initially dissolve test compounds in 100% dimethyl sulfoxide to a concentration of 10 mM. Serially dilute the test compounds in 100% dimethyl sulphoxide using a Biomek FX in 384 well assay plates, so that the final top concentration of test compound is 3 μM in the assay. Add the test compound at 1.0% total assay volume (TAV) to a solid, white, 384 well assay plate (Griener). Add 50% TAV of precoupled (for 60 mins @ RT) membranes (6 ug/well), Wheatgerm Agglutinin Polystyrene Scintillation Proximity Assay beads (RPNQ0260 Amersham International) (0.25 mg/well) in 20 mM HEPES pH 7.4, 100 mM NaCl, 3 mM MgCl2 and 10 μM GDP and saponin 60 m/well FAC was also added. The third addition may be either a 20% TAV addition of either; buffer for agonist format, or EC80 final assay concentration (FAC) of agonist, prepared in assay buffer, 5HT, for antagonist format.
Start the assay by the addition of 29% TAV of GTPγS 0.38 nM FAC.
After all additions, incubate the assay plates at RT for 2-3 hours. […] Read the assay plates between 3-6 hours after the final addition.

[3] = biological target: T2, Human 5-HT1B receptor (Homo sapiens, UniProt P28222); assay: Human 5-HT1B receptor affinity, [3H]-5-HT radioligand binding; settings: CHO cell membranes expressing 5-HT1B, [3H]-5-HT 3 nM, 37° C. 45 minutes; assay b); read-out: pKi against 5-HT1B (converted)
T2 construct: expressed in transfected cells; host or cells: CHO
T2 sequence (P28222 whole entry): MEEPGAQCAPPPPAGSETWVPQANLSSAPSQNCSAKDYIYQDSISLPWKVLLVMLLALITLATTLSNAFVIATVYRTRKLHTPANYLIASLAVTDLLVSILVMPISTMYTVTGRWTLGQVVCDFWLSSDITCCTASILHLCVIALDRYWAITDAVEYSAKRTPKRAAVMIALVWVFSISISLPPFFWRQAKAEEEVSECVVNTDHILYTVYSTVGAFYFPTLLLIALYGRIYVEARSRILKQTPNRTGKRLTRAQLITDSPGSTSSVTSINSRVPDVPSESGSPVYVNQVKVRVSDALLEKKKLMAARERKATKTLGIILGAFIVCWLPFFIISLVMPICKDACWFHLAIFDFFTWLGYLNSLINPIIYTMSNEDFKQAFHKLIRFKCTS
Description: as §1, §2, §3

With COc1cccn(CCCCN2CCN(c3cccc4nc(C)ccc34)CC2)c1=O [compound of formula (I), 3-(methyloxy)-1-{4-[4-(2-methyl-5-quinolinyl)-1-piperazinyl]butyl}-2(1H)-pyridinone] the Ki [1] was 501 pM, the Ki [2] was 501 pM and the Ki [3] was 200000 pM.
